Patent US7795261B2, “Substituted 1-piperidin-4-yl-4-pyrrolidin-3-yl-piperazine derivatives and their use as neurokinin antagonists” (Janssen Pharmaceutica NV, priority 2002, dated 2010)

Assays:
Assay type in all cases: cell-based
NK2 = molecular target: T1, NK2 (Homo sapiens, UniProt P21452); test: Signal transduction (ST), intracellular Ca++ (FLIPR), NK2; details: read-out: pIC50 NK2 (converted)
T1 sequence (P21452 1-398): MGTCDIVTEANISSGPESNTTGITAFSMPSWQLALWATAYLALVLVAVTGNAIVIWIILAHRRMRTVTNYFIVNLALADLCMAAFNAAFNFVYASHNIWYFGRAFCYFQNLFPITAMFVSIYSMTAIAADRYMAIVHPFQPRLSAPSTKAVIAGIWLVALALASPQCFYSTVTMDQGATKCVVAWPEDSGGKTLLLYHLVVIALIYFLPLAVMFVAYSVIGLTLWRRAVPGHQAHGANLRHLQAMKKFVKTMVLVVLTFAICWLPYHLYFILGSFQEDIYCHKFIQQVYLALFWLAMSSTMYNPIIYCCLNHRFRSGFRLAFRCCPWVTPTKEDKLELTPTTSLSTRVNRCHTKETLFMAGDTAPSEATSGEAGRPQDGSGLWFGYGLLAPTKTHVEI

NK1 = NK1 (Homo sapiens, UniProt P25103); test: Signal transduction (ST), intracellular Ca++ (FLIPR), NK1 antagonistic activity; details: read-out: pIC50 NK1 (converted)
Outline: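 Confluent cells loaded with 2 μM Fluo3 (1 h, 37 °C, probenecid), preincubated 20 min at RT with antagonist concentration range, then agonist added. Peak Ca++ transient read by FLIPR in Krebs buffer pH 7.4; IC50 by non-linear regression.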

NK3 = molecular target: T2, NK3 (Homo sapiens, UniProt P29371); test: Signal transduction (ST), intracellular Ca++ (FLIPR), NK3; details: read-out: pIC50 NK3 (converted)
T2 sequence (P29371 1-465): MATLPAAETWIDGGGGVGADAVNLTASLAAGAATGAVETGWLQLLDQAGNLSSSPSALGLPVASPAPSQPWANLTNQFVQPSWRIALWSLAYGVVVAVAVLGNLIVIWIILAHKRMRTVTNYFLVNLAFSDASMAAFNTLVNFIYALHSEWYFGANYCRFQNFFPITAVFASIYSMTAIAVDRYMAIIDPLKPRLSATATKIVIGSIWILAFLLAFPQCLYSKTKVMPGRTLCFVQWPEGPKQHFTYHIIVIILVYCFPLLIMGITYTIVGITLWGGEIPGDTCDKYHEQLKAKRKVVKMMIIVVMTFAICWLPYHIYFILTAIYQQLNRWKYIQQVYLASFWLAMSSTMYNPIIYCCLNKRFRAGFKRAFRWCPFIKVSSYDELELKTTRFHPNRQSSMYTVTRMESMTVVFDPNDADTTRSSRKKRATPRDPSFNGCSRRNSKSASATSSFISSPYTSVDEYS

Chain of NK1 (P25103 whole entry): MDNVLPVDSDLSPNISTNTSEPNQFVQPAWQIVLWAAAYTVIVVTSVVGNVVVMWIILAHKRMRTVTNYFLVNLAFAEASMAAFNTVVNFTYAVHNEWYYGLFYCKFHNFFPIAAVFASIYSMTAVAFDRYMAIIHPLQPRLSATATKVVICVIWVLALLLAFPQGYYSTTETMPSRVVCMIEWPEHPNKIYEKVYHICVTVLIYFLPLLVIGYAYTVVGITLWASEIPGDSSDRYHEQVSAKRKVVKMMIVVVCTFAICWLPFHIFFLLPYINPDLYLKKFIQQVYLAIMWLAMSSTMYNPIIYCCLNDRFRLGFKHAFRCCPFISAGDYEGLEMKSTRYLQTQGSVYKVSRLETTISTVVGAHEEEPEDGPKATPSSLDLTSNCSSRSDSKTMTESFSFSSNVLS

Row | SMILES | IC50 (NK2) [nM] | IC50 (NK1) [nM] | IC50 (NK3) [nM]
1 | O=C(c1cccs1)N1CC[C@H](N2CCN([C@H]3CCN(C(=O)c4cc(C(F)(F)F)cc(C(F)(F)F)c4)[C@H](Cc4ccccc4)C3)CC2)C1 [Compound 322] | 3980 | 7.94 | 631
2 | O=C(c1cnccn1)N1CC[C@H](N2CCN([C@H]3CCN(C(=O)c4cc(C(F)(F)F)cc(C(F)(F)F)c4)[C@H](Cc4ccc(Cl)c(Cl)c4)C3)CC2)C1 [Compound 323] | 1260 | 10 | 316
3 | O=C(c1cc(C(F)(F)F)cc(C(F)(F)F)c1)N1CC[C@H](N2CCN([C@H]3CCN(C(=O)n4ccnc4)C3)CC2)C[C@H]1Cc1ccc(Cl)c(Cl)c1 [Compound 324] | 200 | 6.31 | 398
4 | O=C(c1ccsc1)N1CC[C@H](N2CCN([C@H]3CCN(C(=O)c4cc(C(F)(F)F)cc(C(F)(F)F)c4)[C@H](Cc4ccc(Cl)c(Cl)c4)C3)CC2)C1 [Compound 325] | 398 | 15.8 | 631
5 | O=C(c1ccoc1)N1CC[C@H](N2CCN([C@H]3CCN(C(=O)c4cc(C(F)(F)F)cc(C(F)(F)F)c4)[C@H](Cc4ccc(Cl)c(Cl)c4)C3)CC2)C1 [Compound 326] | 501 | 15.8 | 501
6 | O=C(c1ccccc1O)N1CCC(N2CCN([C@H]3CCN(C(=O)c4cc(C(F)(F)F)cc(C(F)(F)F)c4)[C@H](Cc4ccccc4)C3)CC2)C1 (stereo partly drawn) [Compound 327] | 3980 | 6.31 | 2000
7 | COc1ccc(S(=O)(=O)N2CCC(N3CCN([C@H]4CCN(C(=O)c5cc(C(F)(F)F)cc(C(F)(F)F)c5)[C@H](Cc5ccccc5)C4)CC3)C2)s1 (stereo partly drawn) [Compound 328] | 631 | 6.31 | 6310
8 | O=C(c1cccc(O)c1)N1CCC(N2CCN([C@H]3CCN(C(=O)c4cc(C(F)(F)F)cc(C(F)(F)F)c4)[C@H](Cc4ccccc4)C3)CC2)C1 (stereo partly drawn) [Compound 332] | 1580 | 5.01 | 3160
9 | O=C(C(O)c1ccccc1Cl)N1CCC(N2CCN([C@H]3CCN(C(=O)c4cc(C(F)(F)F)cc(C(F)(F)F)c4)[C@H](Cc4ccccc4)C3)CC2)C1 (stereo partly drawn) [Compound 334] | 5010 | 31.6 | 7940
10 | O=C(c1ccsc1)N1CCC(N2CCN(C3CCN(C(=O)c4cc(C(F)(F)F)cc(C(F)(F)F)c4)C(Cc4cc(F)cc(F)c4)C3)CC2)C1 (stereo not drawn) [Compound 337] | 3160 | 39.8 | 1260
11 | O=C(C1CC1)N1CCC(N2CCN(C3CCN(C(=O)c4cc(C(F)(F)F)cc(C(F)(F)F)c4)C(Cc4cc(F)cc(F)c4)C3)CC2)C1 (stereo not drawn) [Compound 340] | 6310 | 50.1 | 6310
12 | O=C(c1ccc(O)cc1)N1CCC(N2CCN([C@H]3CCN(C(=O)c4cc(C(F)(F)F)cc(C(F)(F)F)c4)[C@H](Cc4ccccc4)C3)CC2)C1 (stereo partly drawn) [Compound 341] | 2000 | 10 | 3160
13 | O=C(c1cc(C(F)(F)F)cc(C(F)(F)F)c1)N1CCC(N2CCN(C3CCN(S(=O)(=O)c4cc(CCO)cs4)C3)CC2)CC1Cc1ccccc1 (stereo not drawn) [Compound 342] | 126 | 5.01 | 398
14 | COc1cccc(NC(=O)N2CCC(N3CCN(C4CCN(C(=O)c5cc(C(F)(F)F)cc(C(F)(F)F)c5)C(Cc5ccccc5)C4)CC3)C2)c1 (stereo not drawn) [Compound 343] | 3160 | 31.6 | 7940
15 | O=C(OCc1ccccc1C(=O)N1CCC(N2CCN([C@H]3CCN(C(=O)c4cc(C(F)(F)F)cc(C(F)(F)F)c4)[C@H](Cc4ccccc4)C3)CC2)C1)c1ccccc1 (stereo partly drawn) [Compound 346] | 1580 | 63.1 | 1260
16 | COc1cccc(S(=O)(=O)N2CCC(N3CCN([C@H]4CCN(C(=O)c5cc(C(F)(F)F)cc(C(F)(F)F)c5)[C@H](Cc5ccccc5)C4)CC3)C2)c1 (stereo partly drawn) [Compound 347] | 631 | 20 | 2510
17 | O=C(c1cc(C(F)(F)F)cc(C(F)(F)F)c1)N1CC[C@H](N2CCN(C3CCN(S(=O)(=O)c4cccc(O)c4)C3)CC2)C[C@H]1Cc1ccccc1 (stereo partly drawn) [Compound 348] | 316 | 10 | 2000
18 | O=C(c1cc(C(F)(F)F)cc(C(F)(F)F)c1)N1CCC(N2CCN(C3CCN(C(CO)c4ccsc4)C3)CC2)CC1Cc1ccccc1 (stereo not drawn) [Compound 349] | 2510 | 31.6 | 6310

Row | SMILES | IC50 (NK2) [nM] | IC50 (NK1) [nM] | IC50 (NK3) [nM]
19 | COc1ccc(C(=O)N2CCC(N3CCN([C@H]4CCN(C(=O)c5cc(C(F)(F)F)cc(C(F)(F)F)c5)[C@H](Cc5ccccc5)C4)CC3)C2)s1 (stereo partly drawn) [Compound 350] | 5010 | 12.6 | 5010
20 | O=C(c1cc(C(F)(F)F)cc(C(F)(F)F)c1)N1CC[C@H](N2CCN(C3CCN(S(=O)(=O)c4ccc(CCO)s4)C3)CC2)C[C@H]1Cc1ccccc1 (stereo partly drawn) [Compound 351] | 251 | 10 | 1000
21 | O=C(c1cc(COCc2ccccc2)cs1)N1CCC(N2CCN([C@H]3CCN(C(=O)c4cc(C(F)(F)F)cc(C(F)(F)F)c4)[C@H](Cc4ccccc4)C3)CC2)C1 (stereo partly drawn) [Compound 352] | 6310 | 63.1 | 3160
22 | O=C(c1sccc1COCc1ccccc1)N1CCC(N2CCN([C@H]3CCN(C(=O)c4cc(C(F)(F)F)cc(C(F)(F)F)c4)[C@H](Cc4ccccc4)C3)CC2)C1 (stereo partly drawn) [Compound 353] | 3160 | 25.1 | 794
23 | COc1ccc(NC(=NC#N)N2CCC(N3CCN([C@H]4CCN(C(=O)c5cc(C(F)(F)F)cc(C(F)(F)F)c5)[C@H](Cc5ccccc5)C4)CC3)C2)cc1 (stereo partly drawn) [Compound 355] | 5010 | 15.8 | 6310
24 | O=C(C1CCCCC1)N1CCC(N2CCN(C3CCN(C(=O)c4cc(C(F)(F)F)cc(C(F)(F)F)c4)C(Cc4ccc(F)c(F)c4)C3)CC2)C1 (stereo not drawn) [Compound 358] | 3160 | 12.6 | 1580
25 | O=C(c1ccc(CCO)s1)N1CCC(N2CCN(C3CCN(C(=O)c4cc(C(F)(F)F)cc(C(F)(F)F)c4)C(Cc4ccccc4)C3)CC2)C1 (stereo not drawn) [Compound 359] | 2510 | 12.6 | 2000
26 | O=C(c1sccc1CO)N1CCC(N2CCN([C@H]3CCN(C(=O)c4cc(C(F)(F)F)cc(C(F)(F)F)c4)[C@H](Cc4ccccc4)C3)CC2)C1 (stereo partly drawn) [Compound 360] | 3980 | 10 | 1000
27 | O=C(c1sccc1CCOCc1ccccc1)N1CCC(N2CCN([C@H]3CCN(C(=O)c4cc(C(F)(F)F)cc(C(F)(F)F)c4)[C@H](Cc4ccccc4)C3)CC2)C1 (stereo partly drawn) [Compound 361] | 1000 | 79.4 | 631
28 | O=C(c1cc(CCOCc2ccccc2)cs1)N1CCC(N2CCN([C@H]3CCN(C(=O)c4cc(C(F)(F)F)cc(C(F)(F)F)c4)[C@H](Cc4ccccc4)C3)CC2)C1 (stereo partly drawn) [Compound 362] | 2510 | 126 | 2510
29 | O=C(c1cc(CCO)cs1)N1CCC(N2CCN([C@H]3CCN(C(=O)c4cc(C(F)(F)F)cc(C(F)(F)F)c4)[C@H](Cc4ccccc4)C3)CC2)C1 (stereo partly drawn) [Compound 363] | 3980 | 12.6 | 1580
30 | O=C(c1sccc1CCO)N1CCC(N2CCN([C@H]3CCN(C(=O)c4cc(C(F)(F)F)cc(C(F)(F)F)c4)[C@H](Cc4ccccc4)C3)CC2)C1 (stereo partly drawn) [Compound 369] | 3980 | 12.6 | 631
31 | CC1(C)OCC(CNC(=NC#N)N2CCC(N3CCN(C4CCN(C(=O)c5cc(C(F)(F)F)cc(C(F)(F)F)c5)C(Cc5ccccc5)C4)CC3)C2)O1 (stereo not drawn) [Compound 370] | 6310 | 20 | 7940
32 | N#CN=C(N1CCOCC1)N1CCC(N2CCN([C@H]3CCN(C(=O)c4cc(C(F)(F)F)cc(C(F)(F)F)c4)[C@H](Cc4ccccc4)C3)CC2)C1 (stereo partly drawn) [Compound 371] | 7940 | 15.8 | 5010
33 | COc1ccc(S(=O)(=O)N2CCC(N3CCN([C@H]4CCN(C(=O)c5cc(C(F)(F)F)cc(C(F)(F)F)c5)[C@H](Cc5ccccc5)C4)CC3)C2)cc1OC (stereo partly drawn) [Compound 378] | 1580 | 12.6 | 2000
34 | O=C(c1cc(C(F)(F)F)cc(C(F)(F)F)c1)N1CC[C@H](N2CCN(C3CCN(S(=O)(=O)c4ccccc4COCc4ccccc4)C3)CC2)C[C@H]1Cc1ccccc1 (stereo partly drawn) [Compound 401] | 3160 | 251 | 1260
35 | CC1(C)OC(=O)C[C@H]1C(=O)N1CCC(N2CCN([C@H]3CCN(C(=O)c4cc(C(F)(F)F)cc(C(F)(F)F)c4)[C@H](Cc4ccccc4)C3)CC2)C1 (stereo partly drawn) [Compound 404] | 5010 | 6.31 | 79.4
